Where two headings read alike, the source gives them in different places.
How the values were obtained:
[1] = test system: HCT116; experiment: Cytotoxicity under normoxia (MTT), HCT116; assay type: cell-based, human
Description: (§1) The cytotoxicity of the compounds 5a-c and their parent alkaloids was evaluated by the 3-[4,5-dimethylthiazole-2-yl]-2,5-diphenyltetrazolium bromide (MTT) assay against 5 cancerous and 2 non-cancerous cell lines (Table 4).
(§2) The eight cell lines HEK293 (Human embryonic kidney 293), CHO-Kt (Chinese hamster ovary K1), MCF-7 cells (Human breast adenocarcinoma), HCT116 (human colorectal carcinoma), RKO (Human rectal carcinoma), SW480 (human colorectal carcinoma), H460 (Human lung cancer), and MRCS (Normal human fetal lung fibroblast), were obtained from the ATCC. The cell lines were routinely grown in alpha minimum essential medium (α-MEM) containing 5% fetal calf serum (FCS). The appropriate number of cells (HCT116=400 cells/well, H460 cells=600 cells/well) were seeded into 96-well plates under normoxic or hypoxic conditions. Cells were plated in 100 μL α-MEM containing 10% FCS, 10 mM D-Glucose and 0.2 mM 20-deoxycytidine. After incubation for 2 h, the compounds were added at the appropriate concentration and incubated for further 4 h. The cells were then washed three times with drug-free α-MEM (containing 5% FCS and pen/strep). The plates were then incubated for 5 days under normoxic conditions. The cells were stained with sulphorhodamine B to measure total cells as per the standard procedure described in Skehan, et. al. [Skehan, P., et. al., J. Natl. Cancer Inst., 1990, 82, 1107-1112, incorporated herein by reference in its entirety]. The IC50 was determined by interpolation as the compound concentration reducing staining to 50% of controls on the same plate as per the standard procedure described in Guise, et. al. [Guise, C. P., et. al., Biochem. Pharmacol., 2007, 74, 810-820, incorporated herein by reference in its entirety].

[2] = test system: HEK293; experiment: Cytotoxicity under normoxia (MTT), HEK293; assay type: cell-based, Human
Description: as §1, §2

[3] = PBS (pH 7.4) solubility; assay type: physicochemical
Description: (§3) Water solubility, log D, and PAMPA-BBB were evaluated using the protocols as described in Omran, et. al. [Omran, Z., et. al., Chem. Pharm. Bull., 2019, 67, 1208-1210, incorporated herein by reference in its entirety].

[4] = test system: MCF7; experiment: Cytotoxicity under normoxia (MTT), MCF7; assay type: cell-based, Human
Description: as §1, §2

[5] = test system: MRC5; experiment: Cytotoxicity under normoxia (MTT), MRC5; assay type: cell-based, human
Description: as §1, §2

[6] = test system: H460; experiment: Cytotoxicity under normoxia and hypoxia (anaerobic chamber), H460; assay type: cell-based, Human; conditions: for HCR (Hypoxia Cytotoxicity Ratio = normoxic IC50/hypoxic IC50): H460; for IC50: 4 h exposure
Description: (§4) The ability of the designed prodrugs to liberate the active alkaloids in hypoxic tumors was evaluated by testing them under hypoxic conditions using an anaerobic chamber. The three prodrugs 5a-c and their parent alkaloids as well as the reference compounds PR-104A, the parent alcohol form of the phosphate pre-prodrug PR-104, and evofosfamide were tested using the HCT116 and H460 cell lines under both normoxic and hypoxic conditions (Table 5). The prodrugs were much less cytotoxic than the parent drugs, in agreement with the results using the other cell lines described above (see FIG. 6).
as §2

[7] = test system: CHO-K1; experiment: Cytotoxicity under normoxia (MTT), CHO-K1; assay type: cell-based, Chinese hamster
Description: as §1, §2

[8] = BBB-Parallel Artificial Membrane Permeability Assay (BBB-PAMPA); assay type: in vitro ADME
Description: The physicochemical properties of the new compounds were evaluated (Table 1). […] Consequently, these derivatives lost their BBB penetrability, as predicted by the BBB-Parallel Artificial Membrane Permeability Assay (BBB-PAMPA), whereas their parent alkaloids had free passage through the BBB.
as §3

[9] = LogD; assay type: physicochemical
Description: as §3

[10] = Mouse microsomal liver stability assay; conditions: mouse hepatic microsomes, 2 μM, 37° C.
Description: Protoc. […] Microsomal incubations were carried out in 96-well plates in 5 aliquots of 40 μL each. […] Control incubations were performed by replacing the NADPH-cofactor system with PBS. The additional control incubations in PBS (with 3.3 mM MgCl2) without added microsomes were carried out in this study. […] The incubations were performed in duplicates. Five time points over 40 min had been analyzed. The reactions were stopped by adding 12 volumes of 90% acetonitrile-water to incubation aliquots, followed by protein sedimentation by centrifuging at 5500 rpm for 3 min. The supernatants were analyzed using LC-MS as mentioned above.

[11] = test system: RKO; experiment: Cytotoxicity under normoxia (MTT), RKO; assay type: cell-based, Human; conditions: read-out: IC50 RKO
Description: as §1, §2

[12] = test system: HCT116; experiment: Cytotoxicity under normoxia and hypoxia (anaerobic chamber), HCT116; assay type: cell-based, human; conditions: for HCR (Hypoxia Cytotoxicity Ratio = normoxic IC50/hypoxic IC50): HTC 116; for IC50: 4 h exposure
Description: as §4, §2

[13] = test system: SW480; experiment: Cytotoxicity under normoxia (MTT), SW480; assay type: cell-based, human
Description: as §1, §2

[14] = normoxia, read-out: IC50 HCT116
[15] = normoxia, read-out: IC50 HEK293
[16] = H460, hypoxia, read-out: IC50 (Hypoxia)
[17] = H460, normoxia, read-out: IC50 (Normoxia)
[18] = normoxia, read-out: IC50 CHO-K1
[19] = HTC 116, hypoxia, read-out: IC50 (Hypoxia)
[20] = HTC 116, normoxia, read-out: IC50 (Normoxia)

Row | SMILES | IC50 [1, 14] [nM] | IC50 [2, 15] [nM] | PBS (pH 7.4) Solubility μM Mean ± SE [3] [μM] | IC50 ([4]; normoxia, read-out: IC50 MCF7) [nM] | IC50 ([5]; normoxia, read-out: IC50 MRC5) [nM] | HCR (Hypoxia Cytotoxicity Ratio = normoxic IC50/hypoxic IC50) [6] | IC50 [6, 16] [nM] | IC50 [6, 17] [nM] | IC50 [7, 18] [nM] | Permeability (Papp) Log [10^−6 cm/s] Mean ± SE [8] | LogD Mean ± SE [9] | Kel, min^−1 (elimination rate constant) [10] [min⁻¹] | t1/2, min [10] [h] | IC50 ([11]; normoxia) [nM] | HCR (Hypoxia Cytotoxicity Ratio = normoxic IC50/hypoxic IC50) [12] | IC50 [12, 19] [nM] | IC50 [12, 20] [nM] | IC50 ([13]; normoxia, read-out: IC50 SW480) [nM] | further results
1 | COc1ccc2c3c(c4cc(OC)c(OC)cc4c2c1)C[C@H]1CCCN1C3 [(R)-Antofine, (R)-antofine] | 2 | 340 ± 43 | 27 ± 2 | 2 | 6 ± 2 | 0.6 | 25.4 | 29.2 | 33 ± 50 | −5.6 ± 0.58 Log [10^−6 cm/s] | 3.68 ± 0.03 | 0.002 ± 0 | 1.12 ± 0.035 | 2 | 0.4 | 16.7 | 23.9 | 9 ± 2 | –
2 | COc1cc2c3c(c4cc(OC)c(OC)cc4c2cc1OC)CN1CCC[C@@H]1C3 [(R)-Tylophorine] | 440 ± 36 | – | – | 101 ± 88 | 95 ± 6 | 1.1 | 161 | 175 | – | – | – | – | – | 338 ± 61 | 0.6 | 56.4 | 1710 | 1150 ± 244 | –
3 | COc1cc2c3c(c4cc(OC)c(OC)cc4c2cc1OC)CN1CCC[C@H]1C3 [(S)-Tylophorine] | 85 ± 6 | 16 ± 26 | 2 ± 0 | 62 ± 13 | 27 ± 2 | 1.1 | 102 | 108 | 35 ± 42 | −5.4 ± 0.17 Log [10^−6 cm/s] | 3.14 ± 0.02 | 0.005 ± 0 | 2.125 ± 0.05 | 202 ± 3 | 0.5 | 50.1 | 35.1 | 69 ± 20 | –
4 | CN(C)CCCN1c2ccccc2Sc2ccc(Cl)cc21 [Chlorpromazine] | – | – | – | – | – | – | – | – | – | −5.4 ± 0.13 Log [10^−6 cm/s] | – | – | – | – | – | – | – | – | –
5 | CN1CCN(C2=Nc3cc(Cl)ccc3Nc3ccccc32)CC1 [Clozapine] | – | – | – | – | – | – | – | – | – | −5.1 ± 0.12 Log [10^−6 cm/s] | – | – | – | – | – | – | – | – | –
6 | COc1ccc2c3c(c4cc(OC)c(OC)cc4c2c1)C[C@H]1CCC[N+]1(Cc1c([N+](=O)[O-])ncn1C)C3.[Br-] (stereo partly drawn) [Compound 5a, (13aR)-2,3,6-trimethoxy-10-((1-methyl-4-nitro-1H-imidazol-5-yl)methyl)-10,11,12,13,13a, 14-hexahydro-9H-dibenzo[f,h]pyrrolo[1,2-b]isoquinolin-10-ium bromide] | – | – | 154 ± 0 | – | – | – | – | – | – | <−7 Log [10^−6 cm/s] | 0.69 ± 0.01 | – | – | – | – | – | – | – | IC50 ([1]; Homo sapiens, HCT-116, read-out: IC50 HCT116): 1040 ± 21 nM; IC50 ([2]; Homo sapiens, HEK293, read-out: IC50 HEK293): 5080 ± 519 nM; IC50 ([4]; Homo sapiens, MCF7, read-out: IC50 MCF7): 1530 ± 144 nM; IC50 ([5]; Homo sapiens, MRC5, read-out: IC50 MRC5): 327 ± 147 nM; IC50 ([6]; Homo sapiens, NCI-H460, H460, hypoxia, read-out: IC50 (Hypoxia)): 618 nM; IC50 ([6]; Homo sapiens, NCI-H460, H460, normoxia, read-out: IC50 (Normoxia)): 15800 nM; IC50 ([7]; Cricetulus griseus, CHO-K1, read-out: IC50 CHO-K1): 1680 ± 542 nM; IC50 ([11]; Homo sapiens, RKO): 2030 ± 267 nM; IC50 ([12]; Homo sapiens, HCT-116, HTC 116, hypoxia, read-out: IC50 (Hypoxia)): 425 nM; IC50 ([12]; Homo sapiens, HCT-116, HTC 116, normoxia, read-out: IC50 (Normoxia)): 16500 nM; IC50 ([13]; Homo sapiens, SW480, read-out: IC50 SW480): 1350 ± 0.126 nM

From patent US11548891B1, “Quaternary ammonium salts of phenanthroindolizidine and phenanthroquinolizidine alkaloids as hypoxia-targeted anticancer agents” (BATTERJEE MEDICAL COLLEGE, priority 2022, dated 2023)
